Experimental data as given in ChEMBL document CHEMBL4321846, “Discovery of a Potent and Selective Oral Inhibitor of ERK1/2 (AZD0364) That Is Efficacious in Both Monotherapy and Combination Therapy in Models of Nonsmall Cell Lung Cancer (NSCLC)” (J Med Chem, 2019).
Each block holds one compound with its values, some of them ahead of it. Active and inactive are the calls of the source. No cut-off for these calls is given here.

Key:
[1] = target: T1, Mitogen-activated protein kinase 1 (Homo sapiens, UniProt P28482); assay: Inhibition of MEK U911-activated ERK2 (unknown origin) using ERKtide as substrate preincubated for 20 mins followed by substrate addition in presence of ATP at Km concentration after 20 mins by rapidfire mass spectrometry analysis
[2] = target: T1, Mitogen-activated protein kinase 1; assay: Inhibition of MEK U911-activated ERK2 (unknown origin) using ERKtide as substrate preincubated for 20 mins followed by substrate addition in presence of 1 mM ATP after 10 mins by rapidfire mass spectrometry analysis
[3] = target: T2, Mitogen-activated protein kinase; ERK1/ERK2 (Homo sapiens, UniProt P27361+P28482); assay: Inhibition of ERK1/2 in human A375 cells assessed as inhibition of ERK phosphorylation after 2 hrs; type: cell-based
[4] = target: T2, Mitogen-activated protein kinase; ERK1/ERK2; assay: Inhibition of ERK1/2 in human A375 cells assessed as inhibition of RSK phosphorylation after 2 hrs; type: cell-based
[5] = tested on: RAF proto-oncogene serine/threonine-protein kinase (Homo sapiens), P04049 [Y340D,Y341D]; assay: Inhibition of recombinant human GST-tagged c-RAF1 Y340D/Y341D mutant catalytic domain expressed in baculovirus expression system at 1 uM relative to control
[6] = target: Serine/threonine-protein kinase B-raf (Homo sapiens) (UniProt P15056); assay: Inhibition of recombinant full length GST-tagged human BRAF1 expressed in baculovirus expression system at 1 uM relative to control
[7] = target: Dual specificity mitogen-activated protein kinase kinase 2 (Homo sapiens) (UniProt P36507); assay: Inhibition of recombinant full length his-tagged human MEK2 expressed in baculovirus expression system at 1 uM relative to control
[8] = target: Dual specificity mitogen-activated protein kinase kinase 1 (Homo sapiens) (UniProt Q02750); assay: Inhibition of recombinant full length His-tagged human MEK1 expressed in baculovirus expression system at 1 uM relative to control
[9] = target: Mitogen-activated protein kinase 15 (Homo sapiens) (UniProt Q8TD08); assay: Binding affinity to recombinant human N-terminal 4xFLAG-tagged/C-terminal His8-fused ERK7 N-terminal domain (M1 to R354 residues) expressed in Sf9 insect cells
[10] = target: NUAK family SNF1-like kinase 1 (Homo sapiens, UniProt O60285); assay: Inhibition of recombinant full length human His-tagged ARK5 expressed in baculovirus expression system
[11] = target: T3, Cyclin-dependent kinase 5/CDK5 activator 1 (Homo sapiens, UniProt Q00535); assay: Inhibition of recombinant full length human GST/His-tagged CDK5/p25 expressed in baculovirus expression system
[12] = target: T3, Cyclin-dependent kinase 5/CDK5 activator 1; assay: Inhibition of recombinant full length human His-tagged CDK5/p35 expressed in baculovirus expression system
[13] = target: Cyclin-dependent kinase 5 (Homo sapiens) (UniProt Q00535); assay: Binding affinity to recombinant human GST-tagged inactive CDK5
[14] = target: Dual specificity mitogen-activated protein kinase kinase 1 (Homo sapiens) (UniProt Q02750); assay: Inhibition of recombinant full length His-tagged human MEK1 expressed in baculovirus expression system at > 10 uM
[15] = target: Cyclin-dependent kinase 2/cyclin E1 (Homo sapiens, UniProt P24941); assay: Inhibition of human full length C-terminal His6-tagged Cdk2/human full length N-terminal GST-tagged Cyclin E expressed in baculovirus infected Sf21 insect cells after 1 hr by electromobility shift assay
[16] = tested on: A-375; assay: Antiproliferative activity at human A375 cells expressing BRAF V600E mutant assessed as growth inhibition; type: functional
[17] = tested on: Calu-6; assay: Antiproliferative activity against human Calu6 cells expressing KRAS Q61K mutant assessed as growth inhibition; type: functional
[18] = target: T1, Mitogen-activated protein kinase 1; assay: Binding affinity to non-phosphorylated biotinylated ERK2 (unknown origin) by SPR analysis
[19] = target: T1, Mitogen-activated protein kinase 1; assay: Binding affinity to MEK-activated phosphorylated biotinylated ERK2 (unknown origin) by SPR analysis
[20] = target: Dual specificity mitogen-activated protein kinase kinase 1 (Homo sapiens) (UniProt Q02750); assay: Inhibition of recombinant full length His-tagged human MEK1 expressed in baculovirus expression system at 1 uM by GST-tagged full length human inactive ERK2 coupled cascade assay relative to control
[21] = target: Mitogen-activated protein kinase 3 (Homo sapiens) (UniProt P27361); assay: Inhibition of GST-tagged recombinant human full length ERK1 expressed in Escherichia coli at 1 uM relative to control
[22] = target: Mitogen-activated protein kinase kinase kinase 8 (Homo sapiens) (UniProt P41279); assay: Inhibition of recombinant GST-tagged human COT catalytic domain expressed in baculovirus expression system at 1 uM by GST-tagged full length human inactive ERK2 expressed in baculovirus expression system coupled cascade assay relative to control
[23] = target: Dual specificity mitogen-activated protein kinase kinase 2 (Homo sapiens) (UniProt P36507); assay: Inhibition of recombinant full length his-tagged human MEK2 expressed in baculovirus expression system at 1 uM by GST-tagged full length human inactive ERK2 expressed in baculovirus expression system coupled cascade assay relative to control
[24] = tested on: RAF proto-oncogene serine/threonine-protein kinase (Homo sapiens), P04049 [Y340D,Y341D]; assay: Inhibition of recombinant human GST-tagged c-RAF1 Y340D/Y341D mutant catalytic domain expressed in baculovirus expression system at 1 uM by GST-tagged full length human inactive ERK2 expressed in baculovirus expression system coupled cascade assay relative to control
[25] = target: Mitogen-activated protein kinase 15 (Homo sapiens) (UniProt Q8TD08); assay: Inhibition of recombinant human N-terminal 4xFLAG-tagged/C-terminal His8-fused ERK7 N-terminal domain (M1 to R354 residues) expressed in Sf9 insect cells at 1 uM relative to control
[26] = target: CDK2/Cyclin O (Homo sapiens) (UniProt P24941+P22674); assay: Inhibition of recombinant human full length N-terminal GST-tagged CDK2/Cyclin O expressed in baculovirus infected Sf9 cells at 1 uM relative to control
[27] = target: T4, CDK2/Cyclin A1 (Homo sapiens) (UniProt P24941+P78396); assay: Binding affinity to recombinant human full length N-terminal GST-tagged CDK2/Cyclin A1 expressed in baculovirus infected Sf9 cells at 1 uM relative to control
[28] = target: Cyclin-dependent kinase 2/cyclin E1 (Homo sapiens) (UniProt P24864+P24941); assay: Inhibition of human full length C-terminal His6-tagged Cdk2/human full length N-terminal GST-tagged Cyclin E expressed in baculovirus infected Sf21 insect cells at 1 uM after 1 hr by electromobility shift assay relative to control
[29] = target: T4, CDK2/Cyclin A1 (Homo sapiens); assay: Inhibition of recombinant human full length His-tagged CDK2/Cyclin A expressed in baculovirus expression system at 1 uM relative to control
[30] = target: Cyclin-dependent kinase 5/CDK5 activator 1 (Homo sapiens) (UniProt Q00535+Q15078); assay: Inhibition of recombinant full length human GST/His-tagged CDK5/p25 expressed in baculovirus expression system at 1 uM relative to control
[31] = target: NUAK family SNF1-like kinase 1 (Homo sapiens) (UniProt O60285); assay: Inhibition of recombinant full length human His-tagged ARK5 expressed in baculovirus expression system at 1 uM relative to control
[32] = tested on: Calu-6; assay: Antitumor activity against human Calu6 cells expressing KRAS Q61K mutant xenografted in athymic Nude-Foxn1nu mouse assessed as tumor growth inhibition at 15 mg/kg, po qd adminstered for 21 days and measured twice per week by caliper method relative to control; type: functional; details: Calu-6, po, 504 h, read-out: TGI
[33] = tested on: Calu-6; assay: Antitumor activity against human Calu6 cells expressing KRAS Q61K mutant xenografted in athymic Nude-Foxn1nu mouse assessed as tumor regression at 50 mg/kg, po qd adminstered for 21 days and measured twice per week by caliper method relative to control; type: functional
[34] = tested on: Mus musculus; assay: Reduction in phosphorylated RSK level in athymic Nude-Foxn1nu mouse xenografted with human Calu6 cells expressing KRAS Q61K mutant at 25 mg/kg, po qd adminstered for 21 days and measured after 0.5 hrs post dose by Western blot analysis relative to control; type: functional; details: Calu-6, po
[35] = tested on: Mus musculus; assay: Reduction in phosphorylated RSK level in athymic Nude-Foxn1nu mouse xenografted with human Calu6 cells expressing KRAS Q61K mutant at 25 mg/kg, po qd adminstered for 21 days and measured after 6 hrs post dose by Western blot analysis relative to control; type: functional; details: Calu-6, po
[36] = tested on: A549; assay: Antitumor activity against human A549 cells harboring KRAS […] mutant xenografted in athymic Nude-Foxn1nu mouse assessed as tumor regression at 25 mg/kg, po bid adminstered for 21 days and measured twice per week in presence of selumetinib by caliper method relative to control; type: functional
[37] = Fraction unbound in mouse plasma; type: ADME, cell-free
[38] = Fraction unbound in rat plasma; type: ADME, cell-free
[39] = Fraction unbound in dog plasma; type: ADME, cell-free, Canis lupus familiaris
[40] = Fraction unbound in human plasma; type: ADME, cell-free
[41] = Volume of distribution at steady state in rat; type: ADME; details: in vivo, read-out: Vdss
[42] = Volume of distribution at steady state in dog; type: ADME, Canis lupus familiaris; details: in vivo, read-out: Vdss
[43] = Half life in po dosed rat; type: ADME, organism-based; details: in vivo
[44] = Half life in po dosed dog; type: ADME, organism-based, Canis lupus familiaris; details: in vivo
[45] = Oral bioavailability in rat; type: ADME, organism-based; details: in vivo
[46] = Oral bioavailability in dog; type: ADME, organism-based, Canis lupus familiaris; details: in vivo
[47] = target: Voltage-gated inwardly rectifying potassium channel KCNH2 (Homo sapiens, UniProt Q12809)
[48] = target: T1, Mitogen-activated protein kinase 1
[49] = target: T1, Mitogen-activated protein kinase 1; remark: listed apart in the source
[50] = target: T1, Mitogen-activated protein kinase 1; remark: listed apart in the source
[51] = target: T1, Mitogen-activated protein kinase 1; remark: listed apart in the source
[52] = target: T1, Mitogen-activated protein kinase 1; remark: listed apart in the source
[53] = target: T1, Mitogen-activated protein kinase 1; remark: listed apart in the source

Dual specificity mitogen-activated protein kinase kinase 1 (Homo sapiens), sequence (Q02750 whole entry, the tested form may be a part): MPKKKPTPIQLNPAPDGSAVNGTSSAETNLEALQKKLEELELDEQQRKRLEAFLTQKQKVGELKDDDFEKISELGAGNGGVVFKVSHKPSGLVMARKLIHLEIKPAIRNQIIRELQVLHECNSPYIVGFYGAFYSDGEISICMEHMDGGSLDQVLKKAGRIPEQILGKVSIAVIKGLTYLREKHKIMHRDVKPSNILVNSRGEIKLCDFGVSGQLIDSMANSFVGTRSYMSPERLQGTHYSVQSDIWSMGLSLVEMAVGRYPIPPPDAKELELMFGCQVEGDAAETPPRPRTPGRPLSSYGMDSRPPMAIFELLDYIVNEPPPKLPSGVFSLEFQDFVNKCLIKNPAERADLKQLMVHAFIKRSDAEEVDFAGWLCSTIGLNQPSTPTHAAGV
T1 sequence (P28482 whole entry): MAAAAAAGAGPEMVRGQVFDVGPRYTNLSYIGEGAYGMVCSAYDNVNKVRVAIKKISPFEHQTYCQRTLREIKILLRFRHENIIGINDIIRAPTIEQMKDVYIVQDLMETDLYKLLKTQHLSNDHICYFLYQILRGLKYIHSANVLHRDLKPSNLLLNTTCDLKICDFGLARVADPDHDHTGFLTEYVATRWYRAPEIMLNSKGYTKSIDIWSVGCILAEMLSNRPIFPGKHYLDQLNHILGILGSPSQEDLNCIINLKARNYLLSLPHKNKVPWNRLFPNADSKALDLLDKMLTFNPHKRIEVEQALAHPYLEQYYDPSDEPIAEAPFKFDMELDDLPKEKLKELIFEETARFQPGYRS
Voltage-gated inwardly rectifying potassium channel KCNH2, sequence (Q12809 whole entry): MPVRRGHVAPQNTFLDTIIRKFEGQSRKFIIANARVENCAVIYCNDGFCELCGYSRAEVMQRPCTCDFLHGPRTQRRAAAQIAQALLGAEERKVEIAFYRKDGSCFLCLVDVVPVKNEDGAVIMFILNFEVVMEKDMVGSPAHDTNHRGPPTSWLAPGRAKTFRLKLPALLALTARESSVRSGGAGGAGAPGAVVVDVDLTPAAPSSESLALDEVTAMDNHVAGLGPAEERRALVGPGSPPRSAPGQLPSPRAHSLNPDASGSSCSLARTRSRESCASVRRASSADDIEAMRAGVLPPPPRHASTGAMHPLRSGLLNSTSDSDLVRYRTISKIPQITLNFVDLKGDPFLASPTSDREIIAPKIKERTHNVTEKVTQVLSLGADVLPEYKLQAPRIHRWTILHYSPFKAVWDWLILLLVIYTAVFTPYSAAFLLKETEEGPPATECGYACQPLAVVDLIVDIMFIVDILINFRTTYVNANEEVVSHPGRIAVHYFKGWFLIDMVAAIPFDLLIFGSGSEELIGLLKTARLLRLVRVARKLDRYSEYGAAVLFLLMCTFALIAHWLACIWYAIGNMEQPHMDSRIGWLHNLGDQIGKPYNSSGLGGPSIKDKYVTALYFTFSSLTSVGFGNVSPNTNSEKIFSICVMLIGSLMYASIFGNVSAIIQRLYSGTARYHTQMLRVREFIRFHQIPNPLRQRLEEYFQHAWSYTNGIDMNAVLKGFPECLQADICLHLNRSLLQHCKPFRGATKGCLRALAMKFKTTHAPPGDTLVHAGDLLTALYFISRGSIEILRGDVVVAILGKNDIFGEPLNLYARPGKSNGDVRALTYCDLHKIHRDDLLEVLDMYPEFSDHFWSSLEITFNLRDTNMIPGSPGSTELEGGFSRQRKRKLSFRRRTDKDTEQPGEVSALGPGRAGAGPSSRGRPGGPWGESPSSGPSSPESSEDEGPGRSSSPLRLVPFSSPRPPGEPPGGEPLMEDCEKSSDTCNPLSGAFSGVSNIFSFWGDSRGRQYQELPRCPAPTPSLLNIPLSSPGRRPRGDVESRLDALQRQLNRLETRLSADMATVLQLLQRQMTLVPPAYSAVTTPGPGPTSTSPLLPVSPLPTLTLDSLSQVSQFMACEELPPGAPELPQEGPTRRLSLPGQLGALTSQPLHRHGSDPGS
Mitogen-activated protein kinase 15 (Homo sapiens), sequence (Q8TD08 whole entry, the tested form may be a part): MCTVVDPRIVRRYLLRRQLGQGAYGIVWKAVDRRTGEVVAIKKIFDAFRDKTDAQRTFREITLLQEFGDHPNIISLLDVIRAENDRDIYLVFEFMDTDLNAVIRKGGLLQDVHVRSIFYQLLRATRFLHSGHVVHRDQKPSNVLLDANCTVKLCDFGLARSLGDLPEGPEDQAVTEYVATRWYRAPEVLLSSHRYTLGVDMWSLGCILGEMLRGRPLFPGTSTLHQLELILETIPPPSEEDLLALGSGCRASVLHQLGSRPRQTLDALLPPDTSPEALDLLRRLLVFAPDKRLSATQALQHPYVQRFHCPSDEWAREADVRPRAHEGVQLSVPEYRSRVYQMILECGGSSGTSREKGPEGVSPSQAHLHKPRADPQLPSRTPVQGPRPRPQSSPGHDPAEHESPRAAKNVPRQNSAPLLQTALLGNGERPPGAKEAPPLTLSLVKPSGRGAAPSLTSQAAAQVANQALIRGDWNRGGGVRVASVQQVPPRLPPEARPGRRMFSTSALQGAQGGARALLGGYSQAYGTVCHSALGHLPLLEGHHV
RAF proto-oncogene serine/threonine-protein kinase (Homo sapiens), P04049 [Y340D,Y341D], sequence (P04049 whole entry Y340D/Y341D, the tested form may be a part): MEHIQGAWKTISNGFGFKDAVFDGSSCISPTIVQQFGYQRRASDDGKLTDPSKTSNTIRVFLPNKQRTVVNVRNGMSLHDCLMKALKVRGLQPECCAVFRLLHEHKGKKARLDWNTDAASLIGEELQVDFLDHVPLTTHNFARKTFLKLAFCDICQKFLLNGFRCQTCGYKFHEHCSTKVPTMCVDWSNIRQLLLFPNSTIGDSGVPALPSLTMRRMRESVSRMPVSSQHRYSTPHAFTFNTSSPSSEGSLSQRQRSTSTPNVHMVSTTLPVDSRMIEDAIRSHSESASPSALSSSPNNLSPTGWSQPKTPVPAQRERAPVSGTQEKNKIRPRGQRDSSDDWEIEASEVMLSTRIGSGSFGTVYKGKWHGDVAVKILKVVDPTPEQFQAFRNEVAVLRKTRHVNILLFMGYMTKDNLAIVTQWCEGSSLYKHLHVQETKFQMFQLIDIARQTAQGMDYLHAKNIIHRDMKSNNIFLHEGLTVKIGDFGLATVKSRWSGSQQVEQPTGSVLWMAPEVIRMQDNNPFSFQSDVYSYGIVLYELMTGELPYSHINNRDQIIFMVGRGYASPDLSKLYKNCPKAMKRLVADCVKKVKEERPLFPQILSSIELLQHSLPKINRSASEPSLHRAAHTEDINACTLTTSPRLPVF
T3 sequence (Q00535 whole entry): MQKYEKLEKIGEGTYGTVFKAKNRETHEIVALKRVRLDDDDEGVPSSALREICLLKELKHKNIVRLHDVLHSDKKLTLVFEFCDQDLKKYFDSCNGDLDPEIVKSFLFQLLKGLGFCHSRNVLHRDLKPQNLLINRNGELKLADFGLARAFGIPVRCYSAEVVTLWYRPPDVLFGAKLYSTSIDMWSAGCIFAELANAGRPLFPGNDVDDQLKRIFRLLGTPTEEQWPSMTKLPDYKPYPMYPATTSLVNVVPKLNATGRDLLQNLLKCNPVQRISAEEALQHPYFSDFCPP
T3 sequence (Q15078 whole entry, further chain): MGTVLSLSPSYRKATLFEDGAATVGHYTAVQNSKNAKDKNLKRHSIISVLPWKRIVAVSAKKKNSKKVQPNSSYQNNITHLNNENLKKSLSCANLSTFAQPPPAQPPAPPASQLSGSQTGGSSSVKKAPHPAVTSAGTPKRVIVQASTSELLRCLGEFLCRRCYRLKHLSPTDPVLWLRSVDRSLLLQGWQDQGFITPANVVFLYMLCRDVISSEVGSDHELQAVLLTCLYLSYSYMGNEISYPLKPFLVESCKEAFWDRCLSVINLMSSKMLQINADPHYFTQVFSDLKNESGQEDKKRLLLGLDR
Dual specificity mitogen-activated protein kinase kinase 2 (Homo sapiens), sequence (P36507 whole entry, the tested form may be a part): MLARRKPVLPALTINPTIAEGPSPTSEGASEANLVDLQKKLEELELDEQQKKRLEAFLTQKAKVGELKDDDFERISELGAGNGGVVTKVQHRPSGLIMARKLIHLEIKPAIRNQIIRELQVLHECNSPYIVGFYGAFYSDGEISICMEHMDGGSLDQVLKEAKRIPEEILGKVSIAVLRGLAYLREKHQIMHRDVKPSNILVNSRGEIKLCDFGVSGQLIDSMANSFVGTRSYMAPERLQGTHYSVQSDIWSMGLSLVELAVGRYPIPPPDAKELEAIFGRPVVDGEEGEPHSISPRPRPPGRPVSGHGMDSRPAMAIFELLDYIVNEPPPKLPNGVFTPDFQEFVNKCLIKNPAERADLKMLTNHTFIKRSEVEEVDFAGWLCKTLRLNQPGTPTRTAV
Mitogen-activated protein kinase kinase kinase 8 (Homo sapiens), sequence (P41279 whole entry, the tested form may be a part): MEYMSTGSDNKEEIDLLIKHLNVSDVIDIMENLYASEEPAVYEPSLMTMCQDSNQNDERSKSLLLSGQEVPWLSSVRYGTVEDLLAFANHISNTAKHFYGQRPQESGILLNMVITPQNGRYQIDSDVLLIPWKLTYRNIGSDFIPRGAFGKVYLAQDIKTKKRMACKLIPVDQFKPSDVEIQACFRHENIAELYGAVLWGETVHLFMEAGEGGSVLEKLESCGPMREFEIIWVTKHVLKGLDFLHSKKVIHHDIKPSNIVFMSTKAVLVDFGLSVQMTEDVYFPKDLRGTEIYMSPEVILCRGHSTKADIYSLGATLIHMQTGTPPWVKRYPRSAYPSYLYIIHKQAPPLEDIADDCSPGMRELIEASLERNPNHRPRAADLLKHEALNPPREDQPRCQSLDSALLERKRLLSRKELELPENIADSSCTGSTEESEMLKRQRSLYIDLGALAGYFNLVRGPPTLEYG
Mitogen-activated protein kinase 3 (Homo sapiens), sequence (P27361 whole entry, the tested form may be a part): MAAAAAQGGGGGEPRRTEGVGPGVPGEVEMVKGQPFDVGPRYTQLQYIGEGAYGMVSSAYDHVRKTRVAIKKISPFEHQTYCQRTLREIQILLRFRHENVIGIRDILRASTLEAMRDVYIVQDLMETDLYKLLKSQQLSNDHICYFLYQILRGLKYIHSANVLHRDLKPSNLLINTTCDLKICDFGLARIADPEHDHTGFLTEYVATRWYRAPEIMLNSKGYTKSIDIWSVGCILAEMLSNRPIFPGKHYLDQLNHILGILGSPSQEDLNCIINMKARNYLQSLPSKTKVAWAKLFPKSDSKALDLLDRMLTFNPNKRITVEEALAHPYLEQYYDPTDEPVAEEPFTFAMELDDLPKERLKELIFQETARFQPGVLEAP

Compound: Cc1cnc(Nc2ccnn2C)nc1-c1cc2n(c1)CCN(Cc1cccc(Cl)c1)C2=O
- IC50 [1]: < 0.3 nM
- IC50 [2]: 0.13 nM
- IC50 [3]: > 14 µM
- IC50 [4]: 0.01 µM

Compound: COC[C@H]1Cn2cc(-c3nc(Nc4ccnn4C)ncc3C)nc2C(=O)N1Cc1ccc(F)c(F)c1 [TIZATERKIB]
- IC50 [1]: < 0.3 nM
- IC50 [2]: 0.66 nM
- IC50 [3]: 0.0017 µM
- IC50 [4]: 0.0057 µM
- inhibition [5]: -3.5%
- inhibition [6]: 5.8%
- inhibition [7]: -2.2%
- inhibition [8]: -2.5%
- Activity [9]: 0.03 µM
- IC50 [10]: 400 nM
- IC50 [11]: 300 nM
- IC50 [12]: 300 nM
- Activity [13]: 1.9 µM
- inhibition [14]: inactive
- IC50 [15]: 1000 nM
- GI50 [16]: 60 nM
- GI50 [17]: 200 nM
- Kd [18]: 0.1 nM
- Kd [19]: 0.0501 nM
- inhibition [20]: 104%
- inhibition [21]: 105%
- inhibition [22]: 103%
- inhibition [23]: 101%
- inhibition [24]: 101%
- inhibition [25]: 99%
- inhibition [26]: 95%
- Activity [27]: 91%
- inhibition [28]: 89%
- inhibition [29]: 87%
- inhibition [30]: 81%
- inhibition [31]: 80%
- inhibition in vivo at 15 mg/kg [32]: 93%
- Activity [33]: 49%
- inhibition in vivo at 25 mg/kg [34]: 100%
- inhibition in vivo at 25 mg/kg [35]: 100%
- Activity [36]: 28%
- fraction unbound [37]: 0.12
- fraction unbound [38]: 0.21
- fraction unbound [39]: 0.44
- fraction unbound [40]: 0.06 to 0.27
- Vd [41]: 1.5 L/kg
- Vd [42]: 1.2 L/kg
- half-life [43]: 138 min
- half-life [44]: 300 min
- bioavailability [45]: 30%
- bioavailability [46]: 100%
- IC50 [47]: 11 µM
- Ka [48]: 6.5 ×10⁻⁵ /M/s
- Ka [49]: 8.9 ×10⁻⁵ /M/s
- Kdiss [50]: 6 ×10⁻⁵ /s
- Kdiss [51]: 4.5 ×10⁻⁵ /s
- T1/2 [52]: 3.23 h
- T1/2 [53]: 4.62 h

Compound: Cn1nccc1Nc1nccc(-c2ccn([C@H](CO)c3ccc(Cl)c(F)c3)c(=O)c2)n1
- Ka [49]: 9.8 ×10⁻⁶ /M/s
- Kdiss [50]: 9.9 ×10⁻³ /s
- T1/2 [52]: 0.02 h
- T1/2 [53]: 0.0133 h

More lines, main results first:

- IC50 [1]: < 0.3 nM
- IC50 [2]: 0.6 nM
- IC50 [3]: 0.03 µM
- IC50 [4]: 0.06 µM
Compound: COC[C@H]1Cn2cc(-c3nc(Nc4ccnn4C)ncc3C)cc2C(=O)N1Cc1cccc(C)n1

- IC50 [1]: < 0.3 nM
- IC50 [2]: 0.35 nM
- IC50 [4]: 0.02 µM
Compound: Cc1cnc(Nc2ccnn2C)nc1-c1cc2n(c1)CCN(Cc1ccc(F)c(F)c1)C2=O

- IC50 [1]: < 0.3 nM
- IC50 [2]: 0.32 nM
- IC50 [3]: 0.0034 µM
- IC50 [4]: 0.038 µM
Compound: Cc1cnc(Nc2ccnn2C)nc1-c1cn2c(n1)C(=O)N(Cc1ccc(F)c(F)c1)[C@@H](C)C2
- IC50 [47]: 23 µM
